This passage reports IC50 results from US20240254089A1, “MODULATORS OF MAS-RELATED G-PROTEIN RECEPTOR X4 AND RELATED PRODUCTS AND METHODS” (ESCIENT PHARMACEUTICALS, INC., priority 2020, published 2024).

The structures appear in SMILES notation.

This experiment deals with T1, human MRGPR X4 (Homo sapiens, UniProt Q96LA9).
T1 construct: expressed in transfected cells
T1 sequence (Q96LA9 whole entry): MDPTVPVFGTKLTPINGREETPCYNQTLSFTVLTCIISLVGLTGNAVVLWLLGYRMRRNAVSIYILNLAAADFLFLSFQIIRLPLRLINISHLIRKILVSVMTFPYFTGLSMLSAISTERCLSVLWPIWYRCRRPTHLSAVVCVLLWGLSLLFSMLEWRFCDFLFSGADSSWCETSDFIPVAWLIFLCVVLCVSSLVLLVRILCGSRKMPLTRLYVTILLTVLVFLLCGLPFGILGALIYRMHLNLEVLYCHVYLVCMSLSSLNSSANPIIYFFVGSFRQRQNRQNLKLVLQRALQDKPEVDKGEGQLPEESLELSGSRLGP
Nature of the experiment: MRGPR X4 antagonist activity, IP-One Gq HTRF assay in stably transfected HEK cells. Type of experiment: cell-based. How it is done: HEK cells stably transfected to express human MIRGPR X4 were maintained in an incubator at 37° C. with 5% CO2 and grown in DMEM media with 10% fetal bovine serum (FBS) and […] each of sodium pyruvate, Glutamax, penicillin/streptomycin, and Geneticin. HEK cells stably transfected to express mouse MRGPR A1 were maintained in the same incubator and grown in DMEM media with 10% FBS, 1% each of sodium pyruvate, Glutamax, penicillin/streptomycin, Geneticin, and 2.2 mg/mL Hygromycin.
Cells were plated in a 384-well assay plate at 20,000 cells per well in 12 μL of Opti-MEM and kept in an incubator overnight. On the day of the assay, compounds solubilized at 10 mM in DMSO were added as a 10-point curve (10 uM final top concentration with 1:3 serial dilutions) using a Tecan D300E digital dispenser. Agonists were diluted in assay buffer (final concentrations of 5.7 mM Tris-HCl, 43 mM NaCl, 50 mM LiCl, pH=8) and 2 μL of the appropriate agonist are added to each well. Final concentrations of agonists were 10 μM bilirubin, 20 μM deoxycholic acid, or 100 μM conjugated bilirubin (obtained from Lee Biosolutions, catalog #910-12). Final concentrations of DMSO were kept consistent across the plate. Plates were incubated in the dark for 1 h at 37° C. and then for 30 minutes at room temperature. IP-1 standards and HTRF detection reagents were added according to the IP-One—Gq Kit purchased from Cisbio (part number 62IPAPEJ) and incubated in the dark for 1 h at room temperature. The plate was read on a Molecular Devices SpectraMax iD5 plate reader. The HTRF ratio was calculated from the raw data and graphed using GraphPad Prism to calculate an IC50 value for each compound.
Background: In TR-FRET formats the signal depends on donor and acceptor labels being close together.
Broadly, the IC50 is the concentration needed to halve the response being measured. The low end stands for inhibition by little substance, the high end for a need for much substance. For the compound `Cc1cccn2c(CCNC(=O)c3nn(Cc4ccc(Cl)cc4)c4ccc(F)cc34)nnc12` [Compound 1], the IC50 is < 100 nM.
Turning to `O=C(NCCc1nnc2ccccn12)c1nn(Cc2ccc(Cl)cc2)c2ccc(F)cc12` [Compound 2], the IC50 was < 100 nM.
Consider `O=C(NCCc1nnc2ccccn12)c1nn(Cc2ccc(Cl)cc2)c2cc(F)ccc12` [Compound 3], for which the IC50 is < 100 nM.
On to `Cc1cccn2c(CCNC(=O)c3nn(Cc4ccc(Cl)cc4)c4ccccc34)nnc12` [Compound 4], for which the IC50 is < 100 nM.
In the case of `O=C(NCCc1nnc2n1CCCCC2)c1nn(Cc2ccc(C(F)(F)F)cc2)c2ccccc12` [Compound 5], the IC50 is < 100 nM.
As to `O=C(NCCc1nnc2n1CCCCC2)c1nn(Cc2ccc(Cl)cc2)c2ccccc12` [Compound 6], the IC50 was < 100 nM.
For the compound `Cc1cc(Cn2nc(C(=O)NCCc3nnc4n3CCCCC4)c3ccccc32)ccc1Cl` [Compound 7], the IC50 was < 100 nM.
For the compound `O=C(NCCc1nnc2n1CCCCC2)c1nn(Cc2ccc(Cl)cc2)c2ccc(Cl)cc12` [Compound 8], the IC50 was < 100 nM.
Consider `O=C(NCCc1cccc(O)c1)c1nn(Cc2ccc(Cl)cc2)c2ccccc12` [Compound 9], for which the IC50 is < 100 nM.
Under `O=C(NCCc1nnc2ccccn12)c1nn(Cc2ccc(Cl)cc2)c2ccccc12` [Compound 10] stands < 100 nM; under `Cc1cc(Cl)ccc1Cn1nc(C(=O)NCCc2nnc3n2CCCCC3)c2ccccc21` [Compound 11], < 100 nM.
Under `O=C(NCCc1nnc2ccccn12)c1nn(Cc2ccc(Cl)cc2)c2ccc(Cl)cc12` [Compound 12] stands < 100 nM.
Take `Cc1ccc(Cn2nc(C(=O)NCCc3nnc4n3CCCCC4)c3ccccc32)cc1` [Compound 13]: the IC50 was < 100 nM.
In the case of `O=C(NCCc1nnc2ccccn12)c1nn(Cc2ccc(C(F)(F)F)cc2)c2ccccc12` [Compound 14], the IC50 was < 100 nM.
With `O=C(NCCc1nnc2ccccn12)c1nn(Cc2ccc(Cl)cc2)c2cccc(F)c12` [Compound 15], the IC50 is < 100 nM.
Regarding `O=C(NCCc1cccnc1)c1nn(Cc2ccc(Cl)cc2Cl)c2ccccc12` [Compound 16], the IC50 was < 100 nM.
Consider `O=C(NCCc1cccnc1)c1nn(Cc2ccc(Cl)c(F)c2)c2ccccc12` [Compound 17], for which the IC50 is < 100 nM.
As to `O=C(NCCc1cccnc1)c1nn(Cc2ccc(Cl)cc2F)c2ccccc12` [Compound 18], the IC50 is < 100 nM.
On to `O=C(NCCc1cccnc1)c1nn(Cc2ccc(Cl)cc2)c2ccccc12` [Compound 19], for which the IC50 was < 100 nM.
Regarding `O=C(NCCc1ccccc1O)c1nn(Cc2ccc(Cl)cc2)c2ccccc12` [Compound 20], the IC50 is < 100 nM.
Under `Cc1ccc(CCNC(=O)c2nn(Cc3ccc(Cl)cc3)c3ccccc23)cn1` [Compound 21] stands < 100 nM.
Turning to `O=C(NCCc1cccnc1)c1nn(Cc2ccc(Cl)c(Cl)c2)c2ccccc12` [Compound 22], the IC50 is < 100 nM.
For the compound `O=C(NCCc1ccccn1)c1nn(Cc2ccc(Cl)cc2)c2ccccc12` [Compound 23], the IC50 was < 100 nM.
Consider `O=C(NCCc1nnc2n1CCCCC2)c1nn(Cc2ccc(OC(F)F)cc2)c2ccccc12` [Compound 24], for which the IC50 was < 100 nM.
In the case of `O=C(NCCc1nnc2n1CCCC2)c1nn(Cc2ccc(Cl)cc2)c2ccccc12` [Compound 25], the IC50 was < 100 nM.
As to `Cc1ccc(Cn2nc(C(=O)NCCc3nnc4n3CCCCC4)c3c(C#N)cccc32)cc1` [Compound 26], the IC50 is < 100 nM.
For `Cc1ccc(Cn2nc(C(=O)NCCc3cccnc3)c3cc(Cl)ccc32)cc1` [Compound 27] the value was < 100 nM; for `Cc1ccc(Cn2nc(C(=O)NCCc3nc4c(s3)CCCC4)c3ccccc32)cc1` [Compound 28], 100 to 500 nM.
Regarding `O=C(NCCc1nc2c(s1)CCCC2)c1nn(Cc2ccc(Cl)cc2)c2ccccc12` [Compound 29], the IC50 was 100 to 500 nM.
The compound `Cc1ccc(Cn2nc(C(=O)NCCc3nnc4n3CCCCC4)c3c(F)cccc32)cc1` [Compound 30] showed an IC50 of 100 to 500 nM.
Take `O=C(NCCc1ccncc1)c1nn(Cc2ccc(Cl)cc2)c2ccccc12` [Compound 31]: the IC50 was in the range of 100 to 500 nM.
As for `Cc1cc(Cn2nc(C(=O)NCCc3cccnc3)c3ccccc32)ccc1Cl` [Compound 32], the IC50 was in the range of 100 to 500 nM.
On to `O=C(NCCc1cn2c(n1)SCC2)c1nn(Cc2ccc(Cl)cc2)c2ccccc12` [Compound 33], for which the IC50 was 100 to 500 nM.
Regarding `Cc1nc(CCNC(=O)c2nn(Cc3ccc(Cl)cc3)c3ccccc23)sc1C` [Compound 34], the IC50 lay in the range of 100 to 500 nM.
For the compound `CC(C)c1ccc(Cn2nc(C(=O)NCCc3nnc4n3CCCCC4)c3ccccc32)cc1` [Compound 35], the IC50 fell in the range of 100 to 500 nM.
Under `Cc1ccc(Cn2nc(C(=O)NCCc3nc4c(s3)CCC4)c3ccccc32)cc1` [Compound 36] stands 100 to 500 nM; under `Cc1cc(Cl)ccc1Cn1nc(C(=O)NCCc2cccnc2)c2ccccc21` [Compound 37], 100 to 500 nM.
For `Cc1ccc(Cn2nc(C(=O)NCCc3nc(C)cs3)c3ccccc32)cc1` [Compound 38] the value was 100 to 500 nM.
Consider `Cc1ncccc1CCNC(=O)c1nn(Cc2ccc(C(F)(F)F)cc2)c2ccccc12` [Compound 39], for which the IC50 was in the range of 100 to 500 nM.
Take `O=C(NCCc1ccc(O)cc1)c1nn(Cc2ccc(Cl)cc2)c2ccccc12` [Compound 40]: the IC50 is 100 to 500 nM.
Compound `Cc1ccc(Cn2nc(C(=O)NCCc3cn4c(n3)SCC4)c3ccccc32)cc1` [Compound 41] displayed an IC50 of 100 to 500 nM.
With `O=C(NCCc1cccnc1)c1nn(Cc2ccc(OC(F)F)cc2)c2ccccc12` [Compound 42], the IC50 fell in the range of 100 to 500 nM.
The compound `COc1cc(Cn2nc(C(=O)NCCc3cccnc3)c3ccccc32)ccc1Cl` [Compound 43, 1-(4-chloro-3-methoxybenzyl)-N-(2-(pyridin-3-yl)ethyl)-1H-indazole-3-carboxamide] registered an IC50 of 100 to 500 nM.
Under `Cc1ncccc1CCNC(=O)c1nn(Cc2ccc(Cl)cc2)c2ccccc12` [Compound 44] stands 100 to 500 nM; under `O=C(NCCc1noc2ccccc12)c1nn(Cc2ccc(Cl)cc2)c2ccccc12` [Compound 45], 100 to 500 nM.
`O=C(NCCc1nc2ccccc2s1)c1nn(Cc2ccc(Cl)cc2)c2ccccc12` [Compound 46]: the IC50 lay in the range of 100 to 500 nM.
For `N#Cc1ccccc1Cn1nc(C(=O)NCCc2cccnc2)c2ccccc21` [Compound 47], the IC50 lay in the range of 100 to 500 nM.
In turn, `Cn1ccc(CCNC(=O)c2nn(Cc3ccc(Cl)cc3)c3ccccc23)n1` [Compound 48] came in with an IC50 of 100 to 500 nM.
Regarding `Cc1ccc(CCNC(=O)c2nn(Cc3ccc(C(F)(F)F)cc3)c3ccccc23)cn1` [Compound 49], the IC50 was in the range of 100 to 500 nM.
`CC(C)(C)c1ccc(Cn2nc(C(=O)NCCc3nnc4n3CCCCC4)c3ccccc32)cc1` [Compound 50]: the IC50 is 100 to 500 nM.
In turn, `O=C(NCCc1nnc2ccccn12)c1nn(Cc2ccc(F)cc2)c2ccccc12` [Compound 51] came in with an IC50 of 100 to 500 nM.
`Cc1ccc(Cn2nc(C(=O)NCCc3cccnc3)c3ccccc32)cc1` [Compound 52] showed an IC50 of 100 to 500 nM.
Turning to `Cc1ccc(Cn2nc(C(=O)NCCc3nc(C)c(C)s3)c3ccccc32)cc1` [Compound 53], the IC50 fell in the range of 100 to 500 nM.
Under `O=C(NCCc1nc2c(s1)CCCC2)c1nn(Cc2ccc(Cl)c(F)c2)c2ccccc12` [Compound 54] stands 100 to 500 nM; under `Cc1cccc(CCNC(=O)c2nn(Cc3ccc(Cl)cc3)c3ccccc23)n1` [Compound 55], 100 to 500 nM.
For `O=C(NCCc1nc2c(s1)CCCC2)c1nn(Cc2ccc(Cl)c(Cl)c2)c2ccccc12` [Compound 56] the value was 100 to 500 nM; for `O=C(NCCc1cccnc1)c1nn(Cc2ccc(F)cc2)c2ccccc12` [Compound 57], 100 to 500 nM.
As for `O=C(NCCc1nnc2n1CCCCC2)c1nn(Cc2cccc(F)c2)c2ccccc12` [Compound 58], the IC50 was 100 to 500 nM.
For `Cc1ccc(Cn2nc(C(=O)NCCc3nnc4n3CCC4)c3ccccc32)cc1` [Compound 59] the value was 100 to 500 nM; for `Cc1ccc(Cn2nc(C(=O)NCCc3nc4c(s3)CCCC4)c3c(C#N)cccc32)cc1` [Compound 60], 100 to 500 nM.
As to `COc1ccc(CCNC(=O)c2nn(Cc3ccc(Cl)cc3)c3ccccc23)nc1` [Compound 61], the IC50 fell in the range of 100 to 500 nM.
Regarding `COc1ccnc(CCNC(=O)c2nn(Cc3ccc(Cl)cc3)c3ccccc23)c1` [Compound 62], the IC50 was 100 to 500 nM.
In turn, `Cc1ccc(Cn2nc(C(=O)NCCc3ccccn3)c3ccccc32)cc1` [Compound 63] gave an IC50 of 100 to 500 nM.
In turn, `COc1cc(Cl)ccc1Cn1nc(C(=O)NCCc2nnc3n2CCCCC3)c2ccccc21` [Compound 64] had an IC50 of 100 to 500 nM.
`Cc1ccc(Cn2nc(C(=O)NCCc3nc4c(s3)COCC4)c3ccccc32)cc1` [Compound 65] had an IC50 of 100 to 500 nM.
Compound `COc1ccc(Cn2nc(C(=O)NCCc3cccnc3)c3ccccc32)cc1` [Compound 66] registered an IC50 of 100 to 500 nM.
For the compound `Cc1ccc(Cn2nc(C(=O)NCCc3cccnc3)c3c(C#N)cccc32)cc1` [Compound 67], the IC50 lay in the range of 100 to 500 nM.
